# Values joined by “and” are separate entries in the source; they are usually repeats but may differ in a detail not shown here. Identical values can stand only once. Like-named read-outs stand apart in the source and are kept apart here.
# Assays:
# [1] = test system: bone marrow cells of rats; experiment: In vivo micronucleus assay
# From the text: A negative control group was established, where the animals received orally 5% methylcellulose solution. […] We counted erythrocytes, recorded the frequencies of polychromatic erythrocyte (PCE) cells in 500 erythrocytes and micronucleated polychromatic erythrocyte (MNPCE) cells in 4000 PCE cells, and calculated the average frequency and the standard deviations for each treatment groups.
# NSD2 (E1099K) = NSD2 (E1099K) (Homo sapiens, UniProt O96028, E1099K); experiment: Radioisotope-based methyltransferase assay (selectivity)
# Chain of NSD2 (E1099K) (O96028 whole entry E1099K): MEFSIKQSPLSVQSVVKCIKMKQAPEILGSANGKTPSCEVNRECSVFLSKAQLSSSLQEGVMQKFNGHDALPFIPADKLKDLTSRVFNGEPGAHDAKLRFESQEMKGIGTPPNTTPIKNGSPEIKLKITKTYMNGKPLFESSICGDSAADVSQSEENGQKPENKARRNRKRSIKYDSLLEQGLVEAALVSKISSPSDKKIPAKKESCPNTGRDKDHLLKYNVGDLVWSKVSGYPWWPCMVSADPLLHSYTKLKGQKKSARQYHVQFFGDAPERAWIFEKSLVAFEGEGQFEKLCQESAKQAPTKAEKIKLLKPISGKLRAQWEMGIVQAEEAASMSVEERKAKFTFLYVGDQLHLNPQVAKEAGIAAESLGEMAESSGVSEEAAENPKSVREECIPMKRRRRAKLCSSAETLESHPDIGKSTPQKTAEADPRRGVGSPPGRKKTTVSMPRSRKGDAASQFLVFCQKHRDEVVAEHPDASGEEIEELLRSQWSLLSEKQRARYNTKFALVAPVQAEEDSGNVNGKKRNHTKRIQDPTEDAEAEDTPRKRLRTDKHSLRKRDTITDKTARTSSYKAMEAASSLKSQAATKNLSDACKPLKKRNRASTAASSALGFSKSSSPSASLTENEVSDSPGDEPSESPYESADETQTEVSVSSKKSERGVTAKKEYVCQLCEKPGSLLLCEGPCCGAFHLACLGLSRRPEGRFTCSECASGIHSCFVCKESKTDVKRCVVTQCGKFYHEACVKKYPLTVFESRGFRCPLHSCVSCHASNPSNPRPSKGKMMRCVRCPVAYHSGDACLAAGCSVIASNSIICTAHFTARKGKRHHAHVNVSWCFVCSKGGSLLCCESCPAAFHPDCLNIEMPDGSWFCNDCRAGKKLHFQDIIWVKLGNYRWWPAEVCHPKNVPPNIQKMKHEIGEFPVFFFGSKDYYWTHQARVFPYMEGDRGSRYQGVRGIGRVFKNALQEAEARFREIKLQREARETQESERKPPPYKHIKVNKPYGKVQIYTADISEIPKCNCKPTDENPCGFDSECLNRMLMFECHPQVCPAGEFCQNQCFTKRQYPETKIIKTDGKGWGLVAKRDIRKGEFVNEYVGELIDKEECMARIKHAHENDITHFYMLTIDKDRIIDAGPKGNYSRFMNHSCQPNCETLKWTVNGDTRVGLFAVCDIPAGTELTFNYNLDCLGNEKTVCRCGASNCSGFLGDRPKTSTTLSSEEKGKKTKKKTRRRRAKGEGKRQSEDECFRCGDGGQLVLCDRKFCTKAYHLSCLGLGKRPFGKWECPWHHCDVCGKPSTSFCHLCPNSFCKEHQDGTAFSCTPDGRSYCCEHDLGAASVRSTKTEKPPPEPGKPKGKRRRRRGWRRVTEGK
# [2] = Parallel artificial membrane permeability assay (PAMPA); type: in vitro ADME
# Procedure: Parallel artificial membrane permeability measurements were performed in duplicate with a Corning Gentest Pre-coated PAMPA Plate System according to the standard protocol of Corning Incorporated Life Sciences (Tewksbury).
# NSD3 = target: T1, NSD3 (Homo sapiens, UniProt Q9BZ95); experiment: Radioisotope-based methyltransferase assay (selectivity); type: biochemical; settings: read-out: IC50
# T1 construct: purchased Reaction Biology
# T1 sequence (Q9BZ95 1-1437): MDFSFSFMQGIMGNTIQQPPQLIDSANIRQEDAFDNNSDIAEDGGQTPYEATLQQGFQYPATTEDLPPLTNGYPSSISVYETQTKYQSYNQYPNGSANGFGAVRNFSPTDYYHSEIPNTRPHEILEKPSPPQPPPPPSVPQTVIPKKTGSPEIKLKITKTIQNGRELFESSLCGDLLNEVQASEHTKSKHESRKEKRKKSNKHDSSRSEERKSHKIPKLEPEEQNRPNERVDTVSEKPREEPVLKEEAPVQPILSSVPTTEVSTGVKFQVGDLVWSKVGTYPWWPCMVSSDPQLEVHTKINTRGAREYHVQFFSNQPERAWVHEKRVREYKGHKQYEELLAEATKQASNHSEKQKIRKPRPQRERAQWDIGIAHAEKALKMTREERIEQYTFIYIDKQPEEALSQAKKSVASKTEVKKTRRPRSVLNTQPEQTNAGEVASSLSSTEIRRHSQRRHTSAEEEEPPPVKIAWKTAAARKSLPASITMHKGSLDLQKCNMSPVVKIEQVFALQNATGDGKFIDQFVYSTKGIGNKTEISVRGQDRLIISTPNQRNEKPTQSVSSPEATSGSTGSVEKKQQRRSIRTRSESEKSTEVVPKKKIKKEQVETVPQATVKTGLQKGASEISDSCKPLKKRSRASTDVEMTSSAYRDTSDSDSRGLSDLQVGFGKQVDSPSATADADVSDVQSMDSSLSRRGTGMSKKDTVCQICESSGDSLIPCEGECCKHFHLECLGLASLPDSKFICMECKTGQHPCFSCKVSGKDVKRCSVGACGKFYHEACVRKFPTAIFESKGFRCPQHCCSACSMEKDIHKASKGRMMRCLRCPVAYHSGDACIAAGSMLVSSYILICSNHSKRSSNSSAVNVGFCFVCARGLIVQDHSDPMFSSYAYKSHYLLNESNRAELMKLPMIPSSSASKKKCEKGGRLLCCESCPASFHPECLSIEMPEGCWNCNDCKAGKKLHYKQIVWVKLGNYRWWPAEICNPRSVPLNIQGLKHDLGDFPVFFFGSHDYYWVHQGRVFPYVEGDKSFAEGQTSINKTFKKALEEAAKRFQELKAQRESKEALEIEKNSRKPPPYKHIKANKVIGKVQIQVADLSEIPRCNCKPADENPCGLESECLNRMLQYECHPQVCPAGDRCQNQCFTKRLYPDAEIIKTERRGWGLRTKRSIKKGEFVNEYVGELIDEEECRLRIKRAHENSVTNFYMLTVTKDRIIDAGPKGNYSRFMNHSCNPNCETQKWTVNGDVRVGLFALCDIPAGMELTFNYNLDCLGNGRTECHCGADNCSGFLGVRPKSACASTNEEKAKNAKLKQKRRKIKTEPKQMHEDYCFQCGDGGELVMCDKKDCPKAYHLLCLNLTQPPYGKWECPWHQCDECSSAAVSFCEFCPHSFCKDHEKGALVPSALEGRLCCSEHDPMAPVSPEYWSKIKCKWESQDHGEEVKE
# [3] = Dose 10 mg/kg, individual animals
# [4] = Dose 30 mg/kg, individual animals
# [5] = Dose 100 mg/kg, individual animals
# [6] = male rats, oral 2 weeks, 10 mg/kg, Mean ± S.D.
# [7] = male rats, oral 2 weeks, 30 mg/kg, Mean ± S.D.
# [8] = male rats, oral 2 weeks, 100 mg/kg, Mean ± S.D.
structure (smiles),measurement,setting,value
Cc1c(C(=O)NC(CCC2CC2)C(=O)Nc2ccc(C#N)cc2)[nH]c2c1C(=O)CC(C)(C)C2 (stereo not shown) [RK-701],MNPCE (%),[1]; [3],0.15% and 0.18% and 0.13% and 0.23%
same,No. of PCE in 500 erythrocytes,[1]; [3],331 and 285 and 278 and 305 and 288
same,Number of MNPCE in 4000 PCE,[1]; [3],6 and 7 and 5 and 9
same,PCE (%),[1]; [3],66.2% and 57% and 55.6% and 61% and 57.6%
same,MNPCE (%),[1]; [4],0.08% and 0.1%
same,No. of PCE in 500 erythrocytes,[1]; [4],299 and 308 and 294 and 330 and 306
same,Number of MNPCE in 4000 PCE,[1]; [4],3 and 4
same,PCE (%),[1]; [4],59.8% and 61.6% and 58.8% and 66% and 61.2%
same,MNPCE (%),[1]; [5],0.13% and 0.1% and 0.18% and 0.15%
same,No. of PCE in 500 erythrocytes,[1]; [5],258 and 313 and 314 and 323 and 328
same,Number of MNPCE in 4000 PCE,[1]; [5],5 and 4 and 7 and 6
same,PCE (%),[1]; [5],51.6% and 62.6% and 62.8% and 64.6% and 65.6%
same,MNPCE (%),[1]; [6],0.17 ± 0.04%
same,No. of PCE in 500 erythrocytes,[1]; [6],297 ± 21
same,PCE (%),[1]; [6],59.5 ± 4.2%
same,MNPCE (%),[1]; [7],0.09 ± 0.01%
same,No. of PCE in 500 erythrocytes,[1]; [7],307 ± 14
same,Number of MNPCE in 4000 PCE,[1]; [7],4 ± 1
same,PCE (%),[1]; [7],61.5 ± 2.8%
same,MNPCE (%),[1]; [8],0.13 ± 0.03%
same,No. of PCE in 500 erythrocytes,[1]; [8],307 ± 28
same,Number of MNPCE in 4000 PCE,[1]; [8],5 ± 1
same,PCE (%),[1]; [8],61.4 ± 5.6%
same,Number of MNPCE in 4000 PCE,"[1]; male rats, oral once a day 2 weeks, 10 mg/kg, Mean ± S.D.",7 ± 1
same,formation of micronuclei in bone marrow cells,"[1]; rats, oral, up to 100 mg/kg, two weeks",did not cause the formation of micronuclei
same,IC50,NSD2 (E1099K),> 100 µM
same,cell permeability (PAMPA and Caco-2),[2],decent cell permeability
same,Papp,[2]; PAMPA,3.08 ± 1.47 ×10⁻⁶ cm/s
same,PAMPA,[2]; replicate values,2.736e-6 and 5.393e-6 and 2.8861e-6 and 1.3122e-6
same,IC50,"NSD3; NSD3, 1 μM SAM",> 100 µM
same,IC50,"NSD3; NSD3, RK-701 in duplicate",> 100 µM

# — publication PMC9837035 (Nature Communications, 2023)
